Reference: article PMC6707612, “Cyclic-di-GMP binds to histidine kinase RavS to control RavS-RavR phosphotransfer and regulates the bacterial lifestyle transition between virulence and swimming” (PLoS Pathogens, 2019)
Entries after “also recorded” stand apart in the source; their conditions may differ.

Experiments:
RavS^ΔTrM = biological target: T1, RavS^ΔTrM (Xanthomonas campestris pv. campestris, UniProt Q8P9A6); experiment: microscale thermophoresis (MST) binding; settings: 20 nM fluorescein-labelled nucleotide
T1 sequence (Q8P9A6 47-697): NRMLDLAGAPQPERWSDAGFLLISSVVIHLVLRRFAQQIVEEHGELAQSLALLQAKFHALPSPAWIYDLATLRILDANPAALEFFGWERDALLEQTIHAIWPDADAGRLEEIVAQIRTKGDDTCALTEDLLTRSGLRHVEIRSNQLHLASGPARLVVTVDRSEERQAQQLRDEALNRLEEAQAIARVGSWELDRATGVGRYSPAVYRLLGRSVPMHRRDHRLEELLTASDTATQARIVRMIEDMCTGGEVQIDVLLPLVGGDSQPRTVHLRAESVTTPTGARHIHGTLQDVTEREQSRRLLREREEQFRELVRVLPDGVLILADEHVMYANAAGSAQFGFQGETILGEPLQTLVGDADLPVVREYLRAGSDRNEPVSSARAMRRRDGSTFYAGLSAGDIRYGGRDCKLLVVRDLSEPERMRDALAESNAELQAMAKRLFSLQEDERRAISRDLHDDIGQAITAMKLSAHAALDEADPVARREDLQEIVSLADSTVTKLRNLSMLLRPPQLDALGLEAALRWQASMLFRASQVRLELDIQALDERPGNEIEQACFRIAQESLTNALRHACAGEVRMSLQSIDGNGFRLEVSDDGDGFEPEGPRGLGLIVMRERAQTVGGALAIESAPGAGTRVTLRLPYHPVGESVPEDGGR
Method: (a) c-di-GMP enhances RavS-RavR phosphotransfer in vitro. A total of 5 μM RavS^ΔN was autophosphorylated for 15 min by the addition of 10 μCi [γ-^32P]ATP. A total of 15 μM RavR^ΔEAL or RavR^ΔEAL(D496A) was added and incubated for 30 min at 25°C. A total of 100 μM c-di-GMP was added if necessary. The reactions were terminated with 5× SDS loading buffer before autoradiography. The experiment was repeated three times. (b) Time course analyses of the impact of c-di-GMP on the velocity of RavS-RavR phosphotransfer. The autophosphorylation and phosphotransfer reactions were set as mentioned in (a). Various concentrations of c-di-GMP were added to the reactions and isotopic signals (band intensities) of RavS~P were measured after autoradiography. (c–d) c-di-GMP triggered an increase in RavS-RavR phosphotransfer in a dose-dependent manner. (c) Various concentrations of c-di-GMP (0, 5, 10, 15, 30, 50, 75 and 100 μM) were added to the RavS-RavR phosphotransfer reactions. (d) The phosphorylated level of RavS^ΔN~P was quantified by ImageJ and the EC50 value was estimated by Origin 8.5 software. In (b) and (d), the intensity of each data point is the average from three experimental repeats. (e) c-di-GMP triggered increase in RavS-RavR phosphotransfer is highly specific. […] The interaction between RavS^ΔTrM and various nucleotides, including fl-c-di-GMP, fl-cGMP and fl-c-di-AMP, were measured by microscale thermophoresis (MST). A total of 20 nM fluorescein-labelled nucleotides and increasing concentrations of proteins were incubated and measured by MST. The dissociation constant (Kd) was quantified to estimate the binding affinity. […]
The interaction between c-di-GMP nucleotides and various proteins was measured by using MST with a fluorescein-labelled c-di-GMP (2′-Fluo-AHC-c-di-GMP, abbreviated as fl-c-di-GMP; 2′-Fluo-AHC-c-di-AMP, fl-c-di-AMP; 2′-Fluo-AHC-cGMP, fl-cGMP; Biolog, Germany). These chemicals contain carboxyfluorescein that has excitation and emission wavelengths of 497 nm and 520 nm, respectively, which can be detected directly by a MST instrument. […]

RavS^ΔN = biological target: T2, RavS^ΔN (Xanthomonas campestris pv. campestris, UniProt Q8P9A6); experiment: in vitro RavS-RavR phosphotransfer assay (RavS~P level by autoradiography); format: biochemical; settings: specificity control nucleotides
T2 sequence (Q8P9A6 352-697): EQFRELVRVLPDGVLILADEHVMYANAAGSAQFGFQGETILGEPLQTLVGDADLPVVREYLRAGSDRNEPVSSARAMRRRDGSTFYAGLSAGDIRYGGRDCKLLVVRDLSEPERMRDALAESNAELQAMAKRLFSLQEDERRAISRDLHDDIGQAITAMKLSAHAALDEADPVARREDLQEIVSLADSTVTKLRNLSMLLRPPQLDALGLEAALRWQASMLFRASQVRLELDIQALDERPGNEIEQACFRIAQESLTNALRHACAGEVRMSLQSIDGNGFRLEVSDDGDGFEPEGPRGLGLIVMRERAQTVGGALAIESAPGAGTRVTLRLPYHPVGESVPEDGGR
Method: (a) c-di-GMP enhances RavS-RavR phosphotransfer in vitro. A total of 5 μM RavS^ΔN was autophosphorylated for 15 min by the addition of 10 μCi [γ-^32P]ATP. A total of 15 μM RavR^ΔEAL or RavR^ΔEAL(D496A) was added and incubated for 30 min at 25°C. A total of 100 μM c-di-GMP was added if necessary. The reactions were terminated with 5× SDS loading buffer before autoradiography. The experiment was repeated three times. (b) Time course analyses of the impact of c-di-GMP on the velocity of RavS-RavR phosphotransfer. The autophosphorylation and phosphotransfer reactions were set as mentioned in (a). Various concentrations of c-di-GMP were added to the reactions and isotopic signals (band intensities) of RavS~P were measured after autoradiography. (c–d) c-di-GMP triggered an increase in RavS-RavR phosphotransfer in a dose-dependent manner. (c) Various concentrations of c-di-GMP (0, 5, 10, 15, 30, 50, 75 and 100 μM) were added to the RavS-RavR phosphotransfer reactions. (d) The phosphorylated level of RavS^ΔN~P was quantified by ImageJ and the EC50 value was estimated by Origin 8.5 software. In (b) and (d), the intensity of each data point is the average from three experimental repeats. (e) c-di-GMP triggered increase in RavS-RavR phosphotransfer is highly specific. […] (f) RavS specifically interacts with fl-c-di-GMP. The interaction between RavS^ΔTrM and various nucleotides, including fl-c-di-GMP, fl-cGMP and fl-c-di-AMP, were measured by microscale thermophoresis (MST). A total of 20 nM fluorescein-labelled nucleotides and increasing concentrations of proteins were incubated and measured by MST. The dissociation constant (Kd) was quantified to estimate the binding affinity. Each experiment was repeated three times.
An in vitro autophosphorylation assay was conducted as described in our previous study. Purified protein was incubated with 10 μM ATP containing 10 μCi [γ-^32P]ATP (PerkinElmer, USA) in the reaction buffer (50 mM Tris-HCl, pH 7.8, 25 mM NaCl, 25 mM KCl, 5 mM MgCl2, 2 mM DTT) for the indicated time at 28°C. If necessary, c-di-GMP was added to the mixture at the same time as ATP. For the phosphoryl transfer assay, purified RR protein or its derivative was added into the reaction mixture containing the phosphorylated HK. The autophosphorylation or phosphoryl transfer reaction was terminated by adding 5× SDS-PAGE loading buffer. Phosphorylated proteins were separated by 12% SDS-PAGE. After electrophoresis, gels were exposed to a phosphor screen (GE Healthcare) and the autoradiographic signals were detected by a Typhoon FLA7000 (GE Healthcare).

[1] = biological target: EAL domain of RavR (Xanthomonas campestris pv. campestris); experiment: SEC + AUC; purified EAL protein, 15 uM, incubated with 300 uM c-di-GMP in phosphodiesterase reaction buffer (50 mM Tris-HCl pH 7.5, 250 mM NaCl, 25 mM KCl, 10 mM MgCl2, 2 mM DTT) at 4 C for 30 min; Superdex 75 10/300 GL to separate dimer and monomer; molecular weight of each fraction determined by analytical ultracentrifugation

Row | Compound | impact on RavS phosphotransferase activity / velocity of RavS-RavR phosphotransfer (RavS^ΔN) | other results
1 | 2′-Fluo-AHC-cGMP [fl-cGMP] | – | Kd (RavS^ΔTrM; read-out: dissociation constant (Kd)): 64.4 ± 9.43 µM
2 | Nc1nc2c(ncn2[C@@H]2O[C@H](COP(=O)(O)OP(=O)(O)OP(=O)(O)O)[C@@H](O)[C@H]2O)c(=O)[nH]1 [GTP] | did not affect; also recorded: did not have any impact | –
3 | EAL domain of RavR (domain or fragment) | – | stoichiometry N [1]: 2
4 | Nc1ncnc2c1ncn2[C@@H]1O[C@@H]2COP(=O)(O)O[C@H]3[C@@H](O)[C@H](n4cnc5c(N)ncnc54)O[C@@H]3COP(=O)(O)O[C@H]2[C@H]1O [c-di-AMP] | did not affect; also recorded: did not have any impact | –
5 | 2′-Fluo-AHC-c-di-AMP [fl-c-di-AMP] | – | dissociation constant (Kd) (RavS^ΔTrM): no binding; also recorded: completely failed to bind
6 | Nc1nc2c(ncn2[C@@H]2O[C@H](COP(=O)(O)O)[C@@H](O)[C@H]2O)c(=O)[nH]1 [GMP] | did not affect; also recorded: did not have any impact | –
7 | Nc1nc2c(ncn2[C@@H]2O[C@@H]3COP(=O)(O)O[C@H]3[C@H]2O)c(=O)[nH]1 [cGMP] | did not affect; also recorded: did not have any impact | –
